Results on 3 molecules are retold here after paper PMC6628648, “Enabling microbial syringol conversion through structure-guided protein engineering” (Proceedings of the National Academy of Sciences of the …, 2019).

The target of assay [1] is T1, GcoA variant F169V (Amycolatopsis sp., UniProt P0DPQ7, F169V).
T1 construct: GST (N, cleaved yes); made in house; host or cells: E. coli Rosetta 2 (DE3)
The experiment in a line: NADH consumption assay (specific activity) with GcoB. The assay is classed as biochemical, Amycolatopsis sp. ATCC 39116. Particulars: saturating (200 µM) substrate, pH 7.5, 25°C.

Assay [2] concerns the target T2, GcoA variant F169H (Amycolatopsis sp., UniProt P0DPQ7, F169H).
T2 construct: GST (N, cleaved yes); made in house; host or cells: E. coli Rosetta 2 (DE3)
Described as above. The assay is classed as biochemical, Amycolatopsis sp. ATCC 39116. Particulars: saturating (200 µM) substrate, pH 7.5, 25°C.

The target in assay [3] is GcoA-F169A (Amycolatopsis sp., UniProt P0DPQ7, F169A). The experiment in a line: Substrate dissociation constant by ferric spin-state (UV/vis) titration. The assay is classed as binding, Amycolatopsis sp. ATCC 39116. Also on record: GST (N, cleaved yes); made in house; host or cells: E. coli Rosetta 2 (DE3). How it is done:
The equilibrium binding constant, KD, for GcoA-F169A and guaiacol, syringol, and 3MC was determined as described previously ([28]) and detailed in SI Appendix. […]
vi = Vmax[S]/(KM + [S]) (4)
Determination of substrate dissociation constants (KD) with F169A. 0-60 µM of guaiacol, syringol, or 3MC in 0.5 or 1 µM aliquots, were titrated into a cuvette containing 3 µM F169A GcoA in 25 mM HEPES, 50 mM NaCl, pH 7.5. The spectrum after each substrate addition was recorded, beginning with no substrate bound. The solution reached equilibrium before the next addition. A difference spectrum was made to illustrate the shift from a low-spin aquo-heme complex to the high-spin substrate-bound complex (spectral […]
shift from 417 nm to 388 nm). […] The absorbance […]
at 388 nm (Abs388-417 nm) was plotted as a function of [substrate], yielding a quadratic curve that was fit to equation (5) to determine […]
Δ Absobs = Δ Absmax2Et(L0 + Et + KD − √(L0 + Et + Kd)2 − 4Et ∗ L0) (5)
Where L0, Et, KD, and ΔAbsmax are the ligand concentrations, total protein (subunit) concentration, the equilibrium dissociation constant, and the maximum Abs388-417 nm, respectively. Reported values are the average of 2 or more measurements.
Formaldehyde determination. A colorimetric assay using tryptophan can be used to quantify the amount of formaldehyde produced in F169 GcoA/B reactions with guaiacol, syringol, or 3MC. 0.2 µM each of F169 GcoA mutants and GcoB were dissolved in air-saturated buffer (25 mM HEPES, 50 mM NaCl) in a cuvette at pH 7.5, 25 °C. 100 µg/mL catalase was added to each reaction to capture any H2O2 formed during the uncoupled reaction. 200 μM NADH was added and the background rate recorded. 100 (guaiacol, syringol, or 3MC) or 200 (syringol) μM of substrate was then added and the reaction monitored until there was no more change, due to either substrate, NADH or O2 depletion, whichever occurred first. […] After cooling, the absorbance was read at 575 nm and the [formaldehyde] calculated by using ε575 nm = 4.2 mM-1 cm-1, obtained with formaldehyde as a standard (1). […]

Where two headings read alike, the source gives them in different places.

T1 sequence (P0DPQ7 whole entry F169V): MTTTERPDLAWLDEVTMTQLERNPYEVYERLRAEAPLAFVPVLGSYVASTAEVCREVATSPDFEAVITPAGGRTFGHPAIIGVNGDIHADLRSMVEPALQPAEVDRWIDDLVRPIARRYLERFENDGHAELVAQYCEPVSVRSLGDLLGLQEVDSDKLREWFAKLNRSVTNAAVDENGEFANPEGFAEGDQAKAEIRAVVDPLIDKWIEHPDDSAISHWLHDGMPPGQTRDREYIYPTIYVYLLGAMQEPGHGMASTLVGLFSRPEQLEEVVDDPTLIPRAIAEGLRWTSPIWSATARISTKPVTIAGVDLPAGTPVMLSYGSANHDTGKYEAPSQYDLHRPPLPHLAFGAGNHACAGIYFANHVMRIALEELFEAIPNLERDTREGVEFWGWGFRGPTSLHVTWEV
T2 sequence (P0DPQ7 whole entry F169H): as the sequence (P0DPQ7 whole entry F169V) above, with V169H counted along it
Sequence of GcoA-F169A (P0DPQ7 whole entry F169A): as the sequence (P0DPQ7 whole entry F169V) above, with V169A counted along it

In the case of `COc1cccc(O)c1O` [3MC, 3-methoxycatechol], the Specific activity in assay [1] is reported as 5.7 ± 0.3 μmol sec-1 μmol-1 GcoA; in assay [2] it was 4.3 ± 0.4 μmol sec-1 μmol-1 GcoA. Moreover, in assay [3] (GcoA-F169A, air-saturated 25 mM Hepes, 50 mM NaCl, pH 7.5, 25 °C, low-spin (417 nm) to high-spin (388 nm) change), the Kd is 9.5 ± 0.2 µM.
Take `COc1ccccc1O` [guaiacol, 2-methoxyphenol]: the Specific activity in assay [1] is listed as 5.3 ± 0.2 μmol sec-1 μmol-1 GcoA; in assay [2], 7.9 ± 3 μmol sec-1 μmol-1 GcoA. This molecule returned a Kd in assay [3] of 7.1 ± 0.1 µM.
Consider `COc1cccc(OC)c1O` [syringol, 2,6-dimethoxyphenol], for which the Specific activity turned out to be 4.1 ± 0.8 μmol sec-1 μmol-1 GcoA in assay [1] and 3.9 ± 0.2 μmol sec-1 μmol-1 GcoA in assay [2]. Besides, the Kd in assay [3] stood at 1.7 ± 0.07 µM.
